Assay results from patent US8618178B2, “Method and substances for treating T-cell mediated autoimmune diseases” (Eberhard-Karls-Universitaet Tuebingen Universitaetsklinikum, priority 2006, dated 2013).
“Also recorded” adds a separate entry of the source. Counter-ions that a name gives are not always drawn.

Tests used:
IL-12 = IL-12 production by DC, ELISA of culture supernatants; assay type: cell-based, mouse; details: after stimulation with LPS
Protocol: IL-4, IL-10, IL-12 and interferon-γ were determined using the ELISA (enzyme linked immunosorbent assay) set or with the use of individual components from BD BioSciences. IL-23 in the supernatant was determined using the ELISA set (eBioscience). For intracytoplasmic cytokine analyses, the T cells were restimulated with PMA/ionomycin or with APC and peptide in the presence of brefeldin A, then fixed and permeabilized and stained. For the surface staining, anti-CD4 or KJ1-26 antibodies were used; the cytokine antibodies (PE labeled) were all obtained from BD Pharmingen.
As antigen presenting cells (APC), T cell depleted spleen cells from syngenic mice were used. Dendritic cells (DC) which were obtained from bone marrow (BMDC) and cultured with GM-CSF were used for the relevant experiments on day 7 of culturing. For the experiment, in each case an equal number of APC were cultured either with the medium alone, with L-BSO (C8H18N2O3S, 0.5 mM), dimethyl sulfoxide DMSO(C2H6OS), dimethyl fumarate DMF (C6H8O4, dissolved in DMSO, 70 μM), or calcium monomethyl fumarate (MMF; CaC10H10O8, 200 μM). All substances except for MMF (Fumapharm) were purchased from Sigma-Aldrich. At the respective stated times (see below) the cells were either analyzed directly for their GSH content, […] 055.B5 (Sigma-Aldrich) or CpG-DNA 1668 (MWG Biotech) and IL-4 (Stratmann). In order to raise the GSH level again, 1 mM GSH-OEt (C12H21N3O6S; Sigma-Aldrich) or 1 mM NAC (Sigma-Aldrich) was added.

[1] = test system: experimental autoimmune encephalomyelitis (EAE); test: EAE after transfer of in vitro generated PLP-specific T cells into naive SJL mice; assay type: in vivo; details: 10^7 lymphocytes injected into naive SJL mice
Protocol: (§1) Spleen and lymph node CD4^+ T cells were stimulated with PLP (proteolipid protein) peptide 139-151 (10 μg/ml) and stimulated for four days with irradiated SJL-APC in the presence or absence of L-BSO (0.5 mM, Sigma), expanded for three to four days and then restimulated for cytokine production (proteolipid protein is the commonest myelin protein in the central nervous system and plays an important part as an autoantigen in the onset of multiple sclerosis). Next, 10^7 sham (control) or L-BSO treated T cells were injected intraperitoneally into naive SJL mice and the EAE developing as a result was observed. […] Half of the group was fed daily for 14 days with DMF 0.3 mg/ml (Fluka) or L-BSO 0.15 mg/ml in the drinking water. For the cytokine analysis of PLP-specific T cells, the draining lymph nodes of the SJL mice were removed 6 days after the immunization and CD4^+ T cells antigen-specifically analyzed (ELISPOT). For this, ELISPOT plates (Millipore Corporation) were coated with anti-IFN-γ or anti-IL-4 antibodies overnight at 4° C., blocked after 12 hrs with PBS/10% FCS and, after the solution had been poured off, the isolated T lymphocytes were incubated with APC and medium alone or in the presence of PLP peptide. After the incubation time, the cells were poured off, and the plates washed with PBS/Tween and incubated with biotin-conjugated secondary antibodies. After further washing procedures and incubation with streptavidin-alkaline phosphatase (Boehringer), the plates were incubated with developer solution. After washing with H2O, the number of spots was determined in the ELISPOT reader (Biosys).
Since the induction of the TH2 phenotype could adversely affect the ability of the CD4^+ T cells to induce autoimmune diseases in immunocompetent mice, it was concluded that GSH^lowIL12^−DC2 could weaken the ability of autoreactive CD4^+ T cells to induce the disease. For the next experiments, lymphocytes from SJL mice were stimulated twice with PLP peptide, either in the presence or absence of L-BSO, DMF or MMF. […]

[2] = test system: experimental autoimmune encephalomyelitis (EAE); test: Actively induced EAE in SJL mice, substance in the drinking water; assay type: in vivo; details: for course/severity of actively induced EAE: DMF 0.3 mg/ml or L-BSO 0.15 mg/ml in the drinking water; for survival of mice with actively induced EAE: substance in the drinking water
Protocol: as §1
(§2) In order further to study whether GSH deprivation can also influence the differentiation and pathogenicity of autoreactive T cells in vivo, mice were fed with DMF or L-BSO in the drinking water, and the control group only with drinking water. Active EAE induction was effected on day 10 with PLP peptide in complete Freund's adjuvant (CFA) and pertussis toxin. The mice were examined daily regarding the course of the artificially triggered disease. Through the administration of L-BSO or DMF, the GSH levels in lymphoid organs and in the brain of immunized mice could be lowered (not shown). […] 6 days after immunization, the draining lymph nodes of the mice were analyzed. For this, the CD4^+ T cells were isolated and the cytokine production of PLP-specific T cells measured using ELISPOT after in vitro stimulation.

[3] = GSH levels in organs of immunized mice after feeding; assay type: in vivo; details: fed in the drinking water; data not shown
Description: as §2, with “stimulation. […] The pharmaceutical substances to be tested can also be analyzed ex vivo for their potential to deplete GSH. For this, after treatment of experimental mice, small tissue pieces are removed from the respective organs and placed in about 1 ml of 1% SSA. The tissue piece in SSA is homogenized using an ultrasonic probe. The further GSH and protein determination is effected according to the procedure described for APC and DC. Comparison with the GSH content of control cells or control tissue indicates the GSH-lowering action of the pharmaceutical substance to be tested.” for “stimulation.”

[4] = test system: PLP-specific CD4+ T cells; test: ELISPOT cytokine analysis of PLP-specific CD4+ T cells from draining lymph nodes of fed mice; assay type: in vivo, SJL mice; details: 6 days after immunization, ELISPOT IL-4 / IFN-γ
Protocol: Spleen and lymph node CD4^+ T cells were stimulated with PLP (proteolipid protein) peptide 139-151 (10 μg/ml) and stimulated for four days with irradiated SJL-APC in the presence or absence of L-BSO (0.5 mM, Sigma), expanded for three to four days and then restimulated for cytokine production (proteolipid protein is the commonest myelin protein in the central nervous system and plays an important part as an autoantigen in the onset of multiple sclerosis). Next, 10^7 sham (control) or L-BSO treated T cells were injected intraperitoneally into naive SJL mice and the EAE developing as a result was observed. […] For the cytokine analysis of PLP-specific T cells, the draining lymph nodes of the SJL mice were removed 6 days after the immunization and CD4^+ T cells antigen-specifically analyzed (ELISPOT). […] After washing with H2O, the number of spots was determined in the ELISPOT reader (Biosys).
In order further to study whether GSH deprivation can also influence the differentiation and pathogenicity of autoreactive T cells in vivo, mice were fed with DMF or L-BSO in the drinking water, and the control group only with drinking water. […] 6 days after immunization, the draining lymph nodes of the mice were analyzed. For this, the CD4^+ T cells were isolated and the cytokine production of PLP-specific T cells measured using ELISPOT after in vitro stimulation.

Row | Compound | IL-12 production by DC (IL-12) | ability of T cells generated in the presence of the substance to induce EAE [1] | course/severity of actively induced EAE [2] | survival of mice with actively induced EAE [2] | GSH levels in lymphoid organs and in the brain of immunized mice [3] | cytokine pattern of PLP-specific CD4+ T cells [4]
1 | COC(=O)/C=C/C(=O)OC [DMF, dimethyl fumarate] | strong suppression of IL-12 production; also recorded: markedly less; also recorded: markedly decreased capacity to produce IL-12 | not able to trigger severe encephalomyelitis | markedly milder EAE; also recorded: protects actively immunized mice against the onset of severe encephalomyelitis | all mice survived | lowered | TH2-like pattern
2 | CCCCS(=N)(=O)CCC(N)C(=O)O [L-BSO, L-buthionine sulfoximine] | strong suppression of IL-12 production; also recorded: markedly decreased capacity to produce IL-12 | scarcely still capable of inducing EAE in vivo | markedly milder EAE; also recorded: markedly improved; also recorded: protects actively immunized mice against the onset of severe encephalomyelitis | all mice survived | lowered | TH2-like pattern
3 | COC(=O)/C=C/C(=O)[O-].[Ca+] [MMF, calcium monomethyl fumarate] | strong suppression of IL-12 production; also recorded: markedly decreased capacity to produce IL-12 | not able to trigger severe encephalomyelitis | – | – | – | –
